Read-outs that look alike come from different tables or passages of the source.
Experiments:
Assay type in all cases: cell-based
[1] = test system: dermatophyte isolates; assay: Susceptibility of dermatophytes, results stated over all isolates; settings: read-out: mean MICs across all the isolates
Description: (§1) Isolates were tested using the method described in the National Committee for Clinical Laboratory Standards (NCCLS) document M38-P for filamentous fungi, with dermatophyte specific modifications described by Fernández-Torres et al, Current topics in Medical Mycology, 14-19 Feb. 1999.
Five dermatophyte isolates were, namely; T. rubrum, T. mentagrophytes, T. tonsurans, M. canis and M. gypseum, all of which produce lipases and some, phospholipase. These isolates were tested by the broth microdilution method according to NCCLS document M38-P, for activity against selected antifungal agents. In addition, ten randomly selected isolates of T. tonsurans were also tested. All isolates were maintained on SDA at 28° C. Candida parapsilosis (ATCC 20019) was used as the reference control is organism. […]
Fungal cultures were subcultured onto Potato Dextrose Agar and grown at 28° C. for 7-10 days. […] Inoculum quantification was performed by plating 100 μl of the 1:1000 dilution of the adjusted inoculum on SDA plates, incubated at 28° C., and after 7 days of incubation, the colonies were counted.
Testing was based on NCCLS M38-P document for testing filamentous moulds. […] Plates were incubated at 28° C. for 7 days, and read at 3 days and 7 days of incubation. […]
Growth in microtitre trays were read by visual inspection by using an illuminated-reversed mirror. […]

[2] = test system: T. mentagrophytes; assay: Susceptibility of dermatophytes, broth microdilution NCCLS M38-P; settings: 100% growth inhibition, 28° C.; for MIC: Trichophyton mentagrophytes
Description: as §1
(§2) Five dermatophyte isolates were, namely; T. rubrum, T. mentagrophytes, T. tonsurans, M. canis and M. gypseum, all of which produce lipases and some, phospholipase. These isolates were tested by the broth microdilution method according to NCCLS document M38-P, for activity against selected antifungal agents. In addition, ten randomly selected isolates of T. tonsurans were also tested. All isolates were maintained on SDA at 28° C. Candida parapsilosis (ATCC 20019) was used as the reference control is organism.
(§3) The microdilution plates used were a single lot of RPMI 1640 basal medium (JRH bioScience Inc. Lenexa, Kans., USA) with L-glutamine and without sodium bicarbonate, buffered to pH 7.0, at 25° C., with 0.165 M (MOPS) morpholinepropanesulfonic acid (Sigma).
(§4) Powdered drugs were dissolved in 100% dimethyl sulfoxide (DMSO), at concentrations 100 times higher than the final test concentration. All compounds were prepared in 100% (DMSO). For ITRA and TRB, two-fold drug dilutions were prepared in 100% DMSO at 100 times the final concentration, followed by further dilution 1:50 in RPMI medium, to yield 2× the final strength required for the test.
(§5) Fungal cultures were subcultured onto Potato Dextrose Agar and grown at 28° C. for 7-10 days. Fungal suspensions were covered with 5 ml of distilled water, and then colonies were scraped off with cotton tipped swabs. The resulting mixture of conidia and hyphae elements was withdrawn, transferred to a sterile tube and then vortexed with glass beads. After the particles settled, the upper homogeneous suspension was collected and its density adjusted by a densitometer to a 0.5 McFarland standard at the wavelength of 530 nm (80-85% transmittance). These stock suspensions were then diluted 1:50 with RPMI medium to obtain final working inoculum concentration ranging from 0.3×10^4 to 9×10^4 CFU/ml. Inoculum quantification was performed by plating 100 μl of the 1:1000 dilution of the adjusted inoculum on SDA plates, incubated at 28° C., and after 7 days of incubation, the colonies were counted.
(§6) Testing was based on NCCLS M38-P document for testing filamentous moulds. Testing was carried out in sterile 96-well flat bottomed microtitre plate. Columns 1 and 3 to 12 were filled with 100 μl of RPMI medium, leaving column 2 unfilled. Columns 1, 2 and 3 were filled with 100 μl of 2× drug concentration. Serial dilutions were then made by transferring 100 μl from column 3 to each column up to column 11, and 100 μl from column 11 was discarded. Column 12 served as drug free growth control. Finally, 100 μl of inoculum suspension was added to all wells except column 1, which acted as sterility control (Columns 1 and 12 served as sterility and growth control respectively). Plates were incubated at 28° C. for 7 days, and read at 3 days and 7 days of incubation. All testing was performed in duplicate, on three separate occasions.
(§7) Growth in microtitre trays were read by visual inspection by using an illuminated-reversed mirror. Growth in each well was compared with the “growth control” drug free well. The MIC end point for all the drugs was chosen to be the first well with 100% growth inhibition (i.e. the lowest drug concentration inhibiting growth).

[3] = test system: ten randomly selected isolates of T. tonsurans; assay: Susceptibility of ten T. tonsurans isolates, broth microdilution NCCLS M38-P; settings: for MIC: Trichophyton tonsurans
Description: as §1, §2, §3, §4, §5, §6, §7

**Q.** Which results are given for `CCCC[N+](CCCC)(CCCC)CCCCCCCCCCCC[N+](CCCC)(CCCC)CCCC` [Compound 3, 1,12-bis(tributylammonium)do-decane dibromide]?
**A.** MIC [1]: 2.62 to 7.61 µg/mL; MIC Range, T. mentagrophyte [2]: 3.8 µg/mL; MIC ([2]; read-out: MIC GM, T. mentagrophyte): 3.8 µg/mL; MIC ([2]; read-out: MIC Mean, T. mentagrophyte): 3.8 µg/mL; MIC Range ([3]; T. tonsurans 1): 1.9 to 3.8 µg/mL; MIC Range ([3]; T. tonsurans 2): 0.45 to 7.6 µg/mL; MIC Range ([3]; T. tonsurans 4): 0.45 to 3.8 µg/mL; MIC Range ([3]; T. tonsurans 5): 0.45 to 7.6 µg/mL; MIC Range ([3]; T. tonsurans 6): 0.45 to 15.25 µg/mL; MIC Range ([3]; T. tonsurans 7): 0.45 to 3.8 µg/mL; MIC Range ([3]; T. tonsurans 8): 0.45 to 3.8 µg/mL; MIC Range ([3]; T. tonsurans 9): 3.8 to 15.25 µg/mL; MIC Range ([3]; T. tonsurans 10): 3.8 to 7.6 µg/mL; MIC Range ([3]; T.tonsurans 3): 0.45 to 3.8 µg/mL; MIC ([3]; T. tonsurans 1, read-out: MIC GM): 3.02 µg/mL; MIC ([3]; T. tonsurans 2, read-out: MIC GM): 1.15 µg/mL; MIC ([3]; T. tonsurans 2, read-out: MIC Mean): 2.83 µg/mL; MIC ([3]; T. tonsurans 4, read-out: MIC GM): 1.87 µg/mL; MIC ([3]; T. tonsurans 4, read-out: MIC Mean): 2.68 µg/mL; MIC ([3]; T. tonsurans 5, read-out: MIC GM): 2.96 µg/mL; MIC ([3]; T. tonsurans 5, read-out: MIC Mean): 5.22 µg/mL; MIC ([3]; T. tonsurans 6, read-out: MIC GM): 4.32 µg/mL; MIC ([3]; T. tonsurans 6, read-out: MIC Mean): 6.94 µg/mL; MIC ([3]; T. tonsurans 7, read-out: MIC GM): 1.87 µg/mL; MIC ([3]; T. tonsurans 7, read-out: MIC Mean): 2.68 µg/mL; MIC ([3]; T. tonsurans 8, read-out: MIC GM): 2.48 µg/mL; MIC ([3]; T. tonsurans 8, read-out: MIC Mean): 3.13 µg/mL; MIC ([3]; T. tonsurans 9, read-out: MIC GM): 6.04 µg/mL; MIC ([3]; T. tonsurans 9, read-out: MIC Mean): 7.61 µg/mL; MIC ([3]; T. tonsurans 10, read-out: MIC GM): 4.52 µg/mL; MIC ([3]; T. tonsurans 10, read-out: MIC Mean): 4.75 µg/mL; MIC ([3]; T.tonsurans 3, read-out: MIC GM): 1.87 µg/mL; MIC ([3]; T.tonsurans 3, read-out: MIC Mean): 2.68 µg/mL; MIC ([3]; read-out: MIC Mean, T. tonsurans 1): 3.17 µg/mL
